# Test results taken from ChEMBL document CHEMBL4229455, “Synthesis and anticancer activity of novel bisindolylhydroxymaleimide derivatives with potent GSK-3 kinase inhibition” (Bioorg Med Chem, 2018).
# Tests used:
# CDK9/cyclin T1 = CDK9/cyclin T1 (Homo sapiens, UniProt P50750); assay: Inhibition of recombinant full length human CDK9/cyclin T expressed in baculovirus infected Sf9 insect cells using YSPTSPSYSPTSPSYSPTSPSKKKK as substrate in presence of [gamma-33P]ATP
# [1] = molecular target: Dual specificity tyrosine-phosphorylation-regulated kinase 1A (Rattus norvegicus, UniProt Q63470); assay: Inhibition of recombinant rat DYRK1A kinase domain expressed in bacteria using KKISGRLSPIMTEQ as substrate in presence of [gamma-33P]ATP
# [2] = molecular target: Glycogen synthase kinase-3 (Sus scrofa, UniProt B2LUN4+I6LNT8); assay: Inhibition of domestic porcine brain full length GSK-3alpha/beta using GS-1 as substrate in presence of [gamma-33P]ATP; design: species or system Sus scrofa domesticus
# [3] = molecular target: Serine/threonine-protein kinase pim-1 (Homo sapiens, UniProt P11309); assay: Inhibition of recombinant full length human PIM1 expressed in bacteria using histone H1 as substrate in presence of [gamma-33P]ATP
# [4] = molecular target: T1, Serine/threonine-protein kinase haspin (Homo sapiens) (UniProt Q8TF76); assay: Inhibition of recombinant human haspin kinase domain expressed in bacteria assessed as residual activity at 10 uM using histone H3 (1 to 21 residues) peptide as substrate in presence of [gamma-33P]ATP
# T1 sequence (whole entry): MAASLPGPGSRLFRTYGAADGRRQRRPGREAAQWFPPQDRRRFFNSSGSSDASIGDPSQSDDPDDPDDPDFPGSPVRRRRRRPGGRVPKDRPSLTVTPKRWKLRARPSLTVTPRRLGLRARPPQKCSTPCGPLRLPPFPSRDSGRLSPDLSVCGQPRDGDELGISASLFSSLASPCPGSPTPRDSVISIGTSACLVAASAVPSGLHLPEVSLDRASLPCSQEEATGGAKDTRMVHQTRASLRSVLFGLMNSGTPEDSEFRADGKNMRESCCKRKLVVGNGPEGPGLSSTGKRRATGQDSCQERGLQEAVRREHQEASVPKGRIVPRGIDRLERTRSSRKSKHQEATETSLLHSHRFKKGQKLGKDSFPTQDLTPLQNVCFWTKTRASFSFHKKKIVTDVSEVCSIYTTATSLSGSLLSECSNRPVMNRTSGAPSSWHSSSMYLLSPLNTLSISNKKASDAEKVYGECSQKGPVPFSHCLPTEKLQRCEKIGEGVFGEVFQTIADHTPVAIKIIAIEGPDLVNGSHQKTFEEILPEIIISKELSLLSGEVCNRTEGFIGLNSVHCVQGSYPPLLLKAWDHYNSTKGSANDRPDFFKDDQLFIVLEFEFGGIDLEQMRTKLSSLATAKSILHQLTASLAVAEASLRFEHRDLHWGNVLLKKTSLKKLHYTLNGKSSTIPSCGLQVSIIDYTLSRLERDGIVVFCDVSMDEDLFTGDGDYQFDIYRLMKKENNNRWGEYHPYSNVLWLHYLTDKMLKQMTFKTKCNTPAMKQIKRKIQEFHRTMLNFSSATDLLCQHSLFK
# [5] = molecular target: Glycogen synthase kinase-3 (Sus scrofa) (UniProt B2LUN4+I6LNT8); assay: Inhibition of domestic porcine brain full length GSK-3alpha/beta assessed as residual activity at 10 uM using GS-1 as substrate in presence of [gamma-33P]ATP; conditions: Sus scrofa domesticus
# CCRF-CEM = assay: Cytotoxicity against human CCRF-CEM cells assessed as cell growth at 10 uM after 48 hrs by SRB assay relative to control; assay type: functional; conditions: read-out: Activity
# HL-60(TB) = assay: Cytotoxicity against human HL-60(TB) cells assessed as cell growth at 10 uM after 48 hrs by SRB assay relative to control; assay type: functional; conditions: HL-60, 48 h, read-out: Activity
# SR = assay: Cytotoxicity against human SR cells assessed as cell growth at 10 uM after 48 hrs by SRB assay relative to control; assay type: functional; conditions: read-out: Activity
# HOP-62 = assay: Cytotoxicity against human HOP62 cells assessed as cell growth at 10 uM after 48 hrs by SRB assay relative to control; assay type: functional; conditions: HOP-62, 48 h, read-out: Activity
# NCI-H460 = assay: Cytotoxicity against human NCI-H460 cells assessed as cell growth at 10 uM after 48 hrs by SRB assay relative to control; assay type: functional; conditions: NCI-H460, 48 h, read-out: Activity
# HCT-116 = assay: Cytotoxicity against human HCT116 cells assessed as cell growth at 10 uM after 48 hrs by SRB assay relative to control; assay type: functional; conditions: HCT-116, 48 h, read-out: Activity
# HT-29 = assay: Cytotoxicity against human HT-29 cells assessed as cell growth at 10 uM after 48 hrs by SRB assay relative to control; assay type: functional; conditions: HT-29, 48 h, read-out: Activity
# SF-539 = assay: Cytotoxicity against human SF539 cells assessed as cell growth at 10 uM after 48 hrs by SRB assay relative to control; assay type: functional; conditions: SF-539, 48 h, read-out: Activity
# SNB-19 = assay: Cytotoxicity against human SNB19 cells assessed as cell growth at 10 uM after 48 hrs by SRB assay relative to control; assay type: functional; conditions: SNB-19, 48 h, read-out: Activity
# U-251 = assay: Cytotoxicity against human U251 cells assessed as cell growth at 10 uM after 48 hrs by SRB assay relative to control; assay type: functional; conditions: U-251, 48 h, read-out: Activity
# MDA-MB-435 = assay: Cytotoxicity against human MDA-MB-435 cells assessed as cell growth at 10 uM after 48 hrs by SRB assay relative to control; assay type: functional; conditions: MDA-MB-435, 48 h, read-out: Activity
# SK-OV-3 = assay: Cytotoxicity against human SKOV3 cells assessed as cell growth at 10 uM after 48 hrs by SRB assay relative to control; assay type: functional; conditions: SK-OV-3, 48 h, read-out: Activity
# UO-31 = assay: Cytotoxicity against human UO31 cells assessed as cell growth at 10 uM after 48 hrs by SRB assay relative to control; assay type: functional; conditions: UO-31, 48 h, read-out: Activity
# DU-145 = assay: Cytotoxicity against human DU145 cells assessed as cell growth at 10 uM after 48 hrs by SRB assay relative to control; assay type: functional; conditions: DU-145, 48 h, read-out: Activity
# MDA-MB-231 = assay: Cytotoxicity against human MDA-MB-231 cells assessed as cell growth at 10 uM after 48 hrs by SRB assay relative to control; assay type: functional; conditions: MDA-MB-231, 48 h, read-out: Activity
# BT-549 = assay: Cytotoxicity against human BT549 cells assessed as cell growth at 10 uM after 48 hrs by SRB assay relative to control; assay type: functional; conditions: BT-549, 48 h, read-out: Activity
# Malme-3M = assay: Cytotoxicity against human MALME-3M cells assessed as cell growth at 10 uM after 48 hrs by SRB assay relative to control; assay type: functional; conditions: read-out: Activity
# SK-MEL-2 = assay: Cytotoxicity against human SK-MEL-2 cells assessed as cell growth at 10 uM after 48 hrs by SRB assay relative to control; assay type: functional; conditions: SK-MEL-2, 48 h, read-out: Activity
# Chain of Serine/threonine-protein kinase pim-1 (P11309 whole entry, the tested form may be a part): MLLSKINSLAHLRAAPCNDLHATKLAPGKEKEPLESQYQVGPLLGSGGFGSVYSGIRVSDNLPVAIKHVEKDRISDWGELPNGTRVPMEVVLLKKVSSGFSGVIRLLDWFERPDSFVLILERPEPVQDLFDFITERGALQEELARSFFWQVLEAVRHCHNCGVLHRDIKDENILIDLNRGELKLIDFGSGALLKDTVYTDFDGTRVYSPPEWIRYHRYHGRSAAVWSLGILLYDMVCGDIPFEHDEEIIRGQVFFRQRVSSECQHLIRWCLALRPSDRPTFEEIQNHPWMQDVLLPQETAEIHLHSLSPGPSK
# Chain of CDK9/cyclin T1 (O60563 whole entry, the tested form may be a part): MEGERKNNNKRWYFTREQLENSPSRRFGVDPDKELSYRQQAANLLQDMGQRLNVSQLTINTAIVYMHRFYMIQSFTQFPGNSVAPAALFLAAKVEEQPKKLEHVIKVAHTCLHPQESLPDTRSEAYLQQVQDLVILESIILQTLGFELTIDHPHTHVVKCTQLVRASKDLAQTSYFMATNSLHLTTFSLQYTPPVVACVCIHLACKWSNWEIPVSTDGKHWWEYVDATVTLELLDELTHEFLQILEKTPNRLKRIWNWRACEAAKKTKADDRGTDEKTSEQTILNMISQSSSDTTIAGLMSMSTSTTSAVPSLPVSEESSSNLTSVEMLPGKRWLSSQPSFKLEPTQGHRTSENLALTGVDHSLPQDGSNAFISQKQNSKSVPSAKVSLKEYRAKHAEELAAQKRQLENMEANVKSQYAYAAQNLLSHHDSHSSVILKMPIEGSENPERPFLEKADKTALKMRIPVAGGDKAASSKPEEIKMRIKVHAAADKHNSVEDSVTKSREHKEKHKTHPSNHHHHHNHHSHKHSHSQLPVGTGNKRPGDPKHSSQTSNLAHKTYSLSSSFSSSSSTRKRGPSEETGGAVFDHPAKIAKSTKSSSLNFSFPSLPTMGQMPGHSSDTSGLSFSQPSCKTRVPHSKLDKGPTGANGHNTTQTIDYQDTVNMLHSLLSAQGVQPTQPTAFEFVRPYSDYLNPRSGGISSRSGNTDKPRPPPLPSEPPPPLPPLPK
# Chain of CDK9/cyclin T1 (P50750 whole entry, the tested form may be a part): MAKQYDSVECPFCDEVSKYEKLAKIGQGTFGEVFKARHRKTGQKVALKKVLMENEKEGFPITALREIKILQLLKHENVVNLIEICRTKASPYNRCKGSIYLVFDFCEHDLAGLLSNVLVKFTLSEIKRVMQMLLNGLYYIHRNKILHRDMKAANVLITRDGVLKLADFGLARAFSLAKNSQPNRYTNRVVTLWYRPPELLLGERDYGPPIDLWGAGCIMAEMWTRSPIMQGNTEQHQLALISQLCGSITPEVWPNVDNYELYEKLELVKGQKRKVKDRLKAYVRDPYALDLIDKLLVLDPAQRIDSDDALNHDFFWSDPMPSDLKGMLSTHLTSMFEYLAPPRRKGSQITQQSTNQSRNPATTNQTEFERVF
Compound,IC50 (CDK9/cyclin T1),IC50 [1],IC50 [2],IC50 [3],Activity [4],Activity [5],growth at 10 µM (CCRF-CEM),growth at 10 µM (HOP-62),growth at 10 µM (NCI-H460),growth at 10 µM (HCT-116),growth at 10 µM (HT-29),growth at 10 µM (SF-539),growth at 10 µM (SNB-19),growth at 10 µM (U-251),growth at 10 µM (MDA-MB-435),growth at 10 µM (SK-OV-3),growth at 10 µM (UO-31),growth at 10 µM (DU-145),growth at 10 µM (MDA-MB-231),growth at 10 µM (BT-549),other results
Cn1cc(C2=C(c3cn(CCCCCC(=O)O)c4ccccc34)C(=O)N(O)C2=O)c2ccccc21,700 nM,1000 nM,3200 nM,> 10000 nM,103%,2%,84.4%,92%,108%,98.4%,105%,98.9%,104%,102%,102%,99.8%,63.2%,109%,84.7%,103%,growth at 10 µM (HL-60(TB)): 103%; growth at 10 µM (SR): 89.6%
N#CCCCCCn1cc(C2=C(c3cn(CCCCCC#N)c4ccccc34)C(=O)NC2=O)c2ccccc21,420 nM,620 nM,120 nM,> 10000 nM,134%,11%,73.5%,118%,86.8%,65.9%,84.4%,53.7%,–,83.8%,105%,57%,72.7%,100%,81.4%,73.6%,growth at 10 µM (Malme-3M): 121%; growth at 10 µM (SK-MEL-2): 96.5%
CC(C)n1cc(C2=C(c3cn(C)c4ccccc34)C(=O)N(O)C2=O)c2ccccc21,1500 nM,> 10000 nM,200 nM,> 10000 nM,127%,-16%,–,84.6%,98.3%,85.4%,105%,97.6%,101%,98.8%,104%,95.8%,56.4%,192%,70.1%,93.2%,growth at 10 µM (HL-60(TB)): 98.7%; growth at 10 µM (Malme-3M): 89%; growth at 10 µM (SK-MEL-2): 86.6%
N#CCCCCCn1cc(C2=C(c3cn(CCCCCC#N)c4ccccc34)C(=O)N(O)C2=O)c2ccccc21,> 10000 nM,> 10000 nM,750 nM,> 10000 nM,99%,5%,8 to 54.2%,45 to 66.5%,28 to 72.7%,21 to 63.3%,51 to 92.4%,–,27 to 79.5%,25 to 82.2%,–,45 to 78.5%,23 to 43.8%,80 to 101%,31 to 40.3%,16 to 56%,growth at 10 µM (Malme-3M): 55%; growth at 10 µM (SK-MEL-2): 8 to 68.7%
Cn1cc(C2=C(c3cn(CCCCCC#N)c4ccccc34)C(=O)N(O)C2=O)c2ccccc21,2100 nM,5000 nM,270 nM,> 10000 nM,114%,8%,83.3%,89.6%,99.3%,85.1%,90.1%,98.4%,104%,102%,68.1%,86.5%,50.8%,106%,58.9%,81.4%,growth at 10 µM (HL-60(TB)): 124%; growth at 10 µM (SR): 67.2%; growth at 10 µM (SK-MEL-2): 94.1%
O=C(O)CCCCCn1cc(C2=C(c3c[nH]c4ccccc34)C(=O)N(O)C2=O)c2ccccc21,2000 nM,2000 nM,750 nM,> 10000 nM,113%,8%,96.2%,86.8%,103%,98.9%,101%,96.3%,107%,102%,102%,81%,61%,104%,92.6%,99.9%,growth at 10 µM (HL-60(TB)): 108%; growth at 10 µM (SR): 100%; growth at 10 µM (SK-MEL-2): 99.4%
